From PubChem BioAssay (NCI)
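Test compounds were applied to cells in 96-well plates for 48 hours at 5 doses. TGI: total growth inhibition.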

Key:
Experiment in all cases: growth of human tumour cells (NCI), 48 h
CAKI-1 renal = system: CAKI-1 renal
HL-60(TB) leukemia = system: HL-60(TB) leukemia
MOLT-4 leukemia = system: MOLT-4 leukemia
A549 NSCLC = system: A549 NSCLC
LOX IMVI melanoma = system: LOX IMVI melanoma
U251 CNS = system: U251 CNS
UACC-257 melanoma = system: UACC-257 melanoma
HCC-2998 colon = system: HCC-2998 colon
UACC-62 melanoma = system: UACC-62 melanoma
IGROV1 ovarian = system: IGROV1 ovarian
MALME-3M melanoma = system: MALME-3M melanoma
SK-OV-3 ovarian = system: SK-OV-3 ovarian
OVCAR-8 ovarian = system: OVCAR-8 ovarian

| Structure (SMILES) | TGI (CAKI-1 renal) | TGI (HL-60(TB) leukemia) | TGI (MOLT-4 leukemia) | TGI (A549 NSCLC) | TGI (LOX IMVI melanoma) | TGI (U251 CNS) | TGI (UACC-257 melanoma) | TGI (HCC-2998 colon) | TGI (UACC-62 melanoma) | TGI (IGROV1 ovarian) | TGI (MALME-3M melanoma) | TGI (SK-OV-3 ovarian) | TGI (OVCAR-8 ovarian) |
| --- | --- | --- | --- | --- | --- | --- | --- | --- | --- | --- | --- | --- | --- |
| O=P1(N2CCOCC2)OCCO1 | > 100 µM | > 100 µM | > 100 µM | > 100 µM | > 100 µM | > 100 µM | > 100 µM | > 100 µM | > 100 µM | > 100 µM | > 100 µM |  |  |
| O=[N+]([O-])c1ccc(NN=C2CN3CCN(C2)c2ccccc23)c([N+](=O)[O-])c1 | > 100 µM |  | > 100 µM | > 100 µM | > 100 µM | > 100 µM | > 100 µM | > 100 µM | > 100 µM | > 100 µM | > 100 µM | > 100 µM | > 100 µM |
| COc1cccc(N=N/C(=N/NC(=O)c2ccc(C)cc2)c2ccc(N(CCC#N)CCC#N)cc2OC)c1 | > 100 µM |  | > 100 µM | > 100 µM | > 100 µM | > 100 µM | > 100 µM | > 100 µM | > 100 µM | > 100 µM | > 100 µM | > 100 µM | > 100 µM |
| Cc1nc2cc(F)c(F)cc2[nH]c1=O | > 100 µM | > 100 µM | > 100 µM | > 100 µM | > 100 µM | > 100 µM | > 100 µM | > 100 µM | > 100 µM |  | > 100 µM | > 100 µM | > 100 µM |
| CC(=O)n1cc(C2CC23N=C(c2ccccc2)OC3=O)c2ccccc21 (stereo not drawn) | 36 µM | 6.12 µM |  | 59.9 µM | 35.8 µM | 36.8 µM | 32.8 µM | 30.8 µM | 31.7 µM | 38.3 µM | 58.2 µM | > 100 µM | 35.3 µM |
| C[C@@H]1[C@@H](C)C(c2ccccc2)O[Si]1(C(C)(C)C)C(C)(C)C (stereo partly drawn) | 33 µM |  | 33.9 µM | 30.3 µM | 30.9 µM | 30.7 µM | 37.5 µM | > 55.8 µM | 46.3 µM | 31 µM | 37 µM | > 69.3 µM | 33.8 µM |
| O=C1c2cc(Cc3ccccc3)c(=O)c(Cc3ccccc3)cc2C(=O)c2cc(Cc3ccccc3)c(=O)c(Cc3ccccc3)cc21 | > 100 µM | > 100 µM | > 100 µM | > 100 µM | > 100 µM | > 100 µM | > 100 µM | > 100 µM |  | > 100 µM | > 100 µM |  | > 100 µM |
| Clc1sc(Cl)c2c1[C@@H](Cl)C[C@@H]2Cl | > 100 µM |  | > 100 µM | > 100 µM | > 100 µM | > 100 µM | > 100 µM | > 100 µM | > 100 µM | > 100 µM | > 100 µM | > 100 µM | > 100 µM |
| COc1ccc(C#Cn2nnc3ccccc32)cc1 | > 100 µM | 60.6 µM | > 100 µM | > 100 µM | > 100 µM | > 100 µM | > 100 µM | 82 µM | > 100 µM | > 100 µM | > 100 µM |  | > 100 µM |
| COc1cc2ccc(C(=O)NCCCNC(=O)c3ccc4cc(OC)c(OC)cc4c3)cc2cc1OC | > 100 µM | > 100 µM |  | > 100 µM | > 100 µM | > 100 µM | > 100 µM | > 100 µM | > 100 µM | > 100 µM | > 100 µM | > 100 µM | > 100 µM |
| Cc1cc(C)c2c(c1)CC1(Cc3cc(C)c(C)cc3C1=O)C2=O (stereo not drawn) | > 100 µM | > 100 µM | > 100 µM | > 100 µM | > 100 µM | > 100 µM | > 100 µM | > 100 µM | > 100 µM | > 100 µM | > 100 µM |  | > 100 µM |
| CCOC(=O)c1ccc(Nc2nc3ccccc3nc2-c2cccs2)cc1 | > 100 µM | > 100 µM | > 100 µM | > 100 µM | 74.1 µM | > 100 µM | > 100 µM | 77.7 µM | 33.6 µM | > 100 µM | > 100 µM |  | > 100 µM |
| COC(=O)[C@@H]1CS(=O)(=O)C(C(C)C)N1C(C)=O (stereo partly drawn) | > 100 µM | 32.1 µM |  | > 100 µM | > 100 µM | > 100 µM | > 100 µM | > 100 µM | > 100 µM | > 100 µM | > 100 µM | > 100 µM | > 100 µM |
| N#CC(CCN1CCC(Nc2ccccc2)(c2nnnn2C2CCCCC2)CC1)(c1ccccc1)c1ccccc1 |  | > 100 µM | > 100 µM | > 100 µM | > 100 µM | > 100 µM | > 100 µM | > 100 µM | > 100 µM | > 100 µM | > 100 µM | > 100 µM | > 100 µM |
| Cc1cccc2c(N)c3cccc(C(=O)NCC[N+](C)(C)Cc4ccc([N+](=O)[O-])s4)c3nc12 | > 73.8 µM |  | 9.36 µM | 17.5 µM | 18.6 µM | > 100 µM | > 78 µM | 25.2 µM | > 49.1 µM | 26 µM | 25 µM | > 75.9 µM | 42.9 µM |
